Experimental data: patent US20230181536A1, “ANTICANCER COMBINATION THERAPY WITH N-(1-ACRYLOYL-AZETIDIN-3-YL)-2-((1H-INDAZOL-3-YL)AMINO)METHYL)-1H-IMIDAZOLE-5-CARBOXAMIDE INHIBITOR OF KRAS-G12C” (TAIHO PHARMACEUTICAL CO., LTD., priority 2020, published 2023)

Molecular target: T1, KRAS G12C (Homo sapiens, UniProt P01116, G12C)
T1 construct: KRAS G12C (amino acid region: 1-169)
Experiment: Inhibitory activity on the KRAS G12C nucleotide (GDP-GTP) exchange reaction
Format: biochemical
Details: Bodipy FL GDP-bound KRAS G12C 25 nM; preincubation at 25° C. for 4 hours; SOS1 100 nM, GppNHp 1 μM, reaction for 30 minutes
How it was run: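 Bodipy FL-GDP-loaded KRAS G12C (aa 1-169, 25 nM) preincubated with compound 4 h at 25 °C in pH 7.5 Tris buffer, 5% DMSO; exchange started with SOS1 (aa 564-1049, 100 nM) and 1 μM GppNHp for 30 min. Fluorescence change (ex 485/em 520 nm) normalized to DMSO and no-GppNHp controls; IC50 calculated.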

T1 sequence (P01116 1-169 isoform P01116-2 G12C): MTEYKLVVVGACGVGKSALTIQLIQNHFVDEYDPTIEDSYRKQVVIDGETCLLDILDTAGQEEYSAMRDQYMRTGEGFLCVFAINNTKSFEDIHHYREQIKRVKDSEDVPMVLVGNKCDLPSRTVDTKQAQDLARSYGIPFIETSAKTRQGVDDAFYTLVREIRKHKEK

IC50 [nM] | SMILES
7 | C=CC(=O)N1CC(NC(=O)c2c(Cl)nc(CNc3n[nH]c4cc(Cl)c(C(C)(C)C)cc34)n2CC(C)C)C1 [Example 89, N-(1-acryloylazetidin-3-yl)-2-(((5-(tert-butyl)-6-chloro-1H-indazol-3-yl)amino)methyl)-4-chloro-1-isobutyl-1H-imidazole-5-carboxamide]
19 | [2H]C([2H])(Nc1n[nH]c2cc(Cl)c(C(C)(C)C)cc12)c1nc(C(F)F)c(C(=O)NC2CN(C(=O)C=C)C2)n1C(C)C [Example 36, N-(1-acryloylazetidin-3-yl)-2-(((5-(tert-butyl)-6-chloro-1H-indazol-3-yl)amino)methyl-d2)-4-(difluoromethyl)-1-isopropyl-1H-imidazole-5-carboxamide]
1500 | C=CC(=O)N1C[C@H](NC(=O)c2c(C)nc(CNc3n[nH]c4cc(Cl)c(C(C)(C)C)cc34)n2C)[C@@H](C)C1 [Example 60, N-((3R,4S)-1-acryloyl-4-methylpyrrolidin-3-yl)-2-(((5-(tert-butyl)-6-chloro-1H-indazol-3-yl)amino)methyl)-1,4-dimethyl-1H-imidazole-5-carboxamide]
9 | C=CCN1CC[C@@H](n2c(CNc3n[nH]c4cc(Cl)c(C(C)(C)C)cc34)nc(Cl)c2C(=O)NC2CN(C(=O)C=C)C2)C1 [Example 123, (R)-N-(1-acryloylazetidin-3-yl)-1-(1-allylpyrrolidin-3-yl)-2-(((5-(tert-butyl)-6-chloro-1H-indazol-3-yl)amino)methyl)-4-chloro-1H-imidazole-5-carboxamide]
209 | CC#CC(=O)N1CC(NC(=O)c2c(C)nc(CNc3n[nH]c4cc(Cl)c(C(C)(C)C)cc34)n2C(C)C)C1 [Example 82, N-(1-(buty-2-noyl)azetidin-3-yl)-2-(((5-(tert-butyl)-6-chloro-1H-indazol-3-yl)amino)methyl)-1-isopropyl-4-methyl-1H-imidazole-5-carboxamide]
84 | C=CC(=O)N1C[C@H](NC(=O)c2c(C)nc(CNc3n[nH]c4cc(Cl)c(C(C)(C)C)cc34)n2C)[C@@H](OC)C1 [Example 63, N-((3S,4S)-1-acryloyl-4-methoxypyrrolidin-3-yl)-2-(((5-(tert-butyl)-6-chloro-1H-indazol-3-yl)amino)methyl)-1,4-dimethyl-1H-imidazole-5-carboxamide]
8 | C=CC(=O)N1CC(NC(=O)c2c(Cl)nc(CNc3n[nH]c4cc(Cl)c(C(C)(C)C)cc34)n2C2CCCC2)C1 [Example 105, N-(1-acryloylazetidin-3-yl)-2-(((5-(tert-butyl)-6-chloro-1H-indazol-3-yl)amino)methyl)-4-chloro-1-cyclopentyl-1H-imidazole-5-carboxamide]
17 | C=CC(=O)N1CC(NC(=O)c2c(C)nc(CNc3n[nH]c4cc(Cl)c(C(C)(C)C)cc34)n2C2CCCC2)C1 [Example 17, N-(1-acryloylazetidin-3-yl)-2-(((5-(tert-butyl)-6-chloro-1H-indazol-3-yl)amino)methyl)-1-cyclopentyl-4-methyl-JH-imidazole-5-carboxamide]
117 | C=CC(=O)N1C[C@@H](C)[C@@H](NC(=O)c2c(C(F)F)nc(CNc3n[nH]c4cc(Cl)c(C(C)(C)C)cc34)n2C)C1 [Example 71, N-((3R,4R)-1-acryloyl-4-methylpyrrolidin-3-yl)-2-(((5-(tert-butyl)-6-chloro-1H-indazol-3-yl)amino)methyl)-4-(difluoromethyl)-1-methyl-1H-imidazole-5-carboxamide]
5 | C=CC(=O)N1CC(NC(=O)c2c(Cl)nc(CNc3n[nH]c4cc(Cl)c(C(C)(C)C)cc34)n2C2CCCN(C)C2)C1 (stereo not shown) [Example 118, N-(1-acryloylazetidin-3-yl)-2-(((5-(tert-butyl)-6-chloro-1H-indazol-3-yl)amino)methyl)-4-chloro-1-(1-methylpiperidin-3-yl)-1H-imidazole-5-carboxamide]
